Source: patent US11021435B2, “Serotonin receptor-targeting compounds and methods” (priority 2014, dated 2021)
pKi: −log10 of the molar value. “Also recorded” adds a separate entry of the source.

What was measured:
[1] = system: mice; experiment: Test for serotonin syndrome; type: in vivo; details: 5.6 mg/kg
Excerpt: (§1) Of note, after behavioral testing was complete, blind scorers categorized mice into two groups based on number of rears and initiated social interactions, and the two groups differentiated vehicle from (+)-5-FPT-treated mice with 100% accuracy.

[2] = system: C57BI/6J mice; experiment: d-amphetamine (AMP)-elicited hyperlocomotion in C57BI/6J mice; type: in vivo; details: 5.6 mg/kg; AMP 3 mg/kg; 30 min session
Excerpt: (§2) Regarding glutamate neurotransmission in stereotypy, the NMDA receptor antagonist, MK-801, characteristically elicits stereotypic rotations that appear to mimic monogenetic stereotypy observed in Fmr1 KO mice. Furthermore, mutations and autoantibodies of the NMDA glutamate receptor that decrease its function are causally linked to ASD, intellectual disabilities, and psychiatric symptoms in humans.

[3] = system: C58/J and C57BI/6J mice; experiment: Locomotor behavior of the compound on its own (stereotypy assays); type: in vivo; details: 1, 3 and 5.6 mg/kg
Excerpt: Data are from stereotypy assays using C58/J (left) and C57BI/6J (right) mice. […] Bar graphs show the mean±SEM.

[4] = system: C57BI/6J mice; experiment: Social interactions with vehicle-treated littermates and grooming; type: in vivo; details: 5.6 mg/kg
Excerpt: Data are from C57BI/6J mice.
as §1

[5] = Plasma and brain concentrations after subcutaneous administration; type: in vivo, mice
[6] = target: T1, 5-HT1A receptors (Homo sapiens, UniProt P08908); experiment: Functional assay at 5-HT1A, relative to 5-CT; type: cell-based
T1 construct: expressed in transfected cells; host or cells: HEK293, transient
T1 sequence (P08908 1-422): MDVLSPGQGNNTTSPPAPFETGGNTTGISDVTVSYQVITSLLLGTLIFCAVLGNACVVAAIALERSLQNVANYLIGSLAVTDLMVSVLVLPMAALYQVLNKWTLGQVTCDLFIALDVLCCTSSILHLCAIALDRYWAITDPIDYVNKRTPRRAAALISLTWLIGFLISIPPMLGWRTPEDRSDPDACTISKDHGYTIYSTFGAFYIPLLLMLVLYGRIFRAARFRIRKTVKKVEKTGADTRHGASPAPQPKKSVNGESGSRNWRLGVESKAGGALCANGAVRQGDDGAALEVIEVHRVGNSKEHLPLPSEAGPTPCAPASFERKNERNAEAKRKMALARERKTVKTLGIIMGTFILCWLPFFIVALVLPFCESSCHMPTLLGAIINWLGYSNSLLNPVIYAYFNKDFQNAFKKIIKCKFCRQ

[7] = system: C58/J mice; experiment: Idiopathic stereotypic jumping in C58/J mice; type: in vivo; details: 1 and 3 mg/kg
[8] = system: C57BI/6J mice; experiment: MK-801-elicited stereotypic rotations in C57BI/6J mice; type: in vivo
Excerpt: as §2

[9] = system: C57BI/6J mice; experiment: MK-801-elicited hyperlocomotion in C57BI/6J mice; type: in vivo; details: 5.6 mg/kg; MK-801 0.3 mg/kg; 30 min session
Excerpt: Bar graphs show the mean±SEM.
as §2

[10] = target: T2, adrenergic α1B receptor (Homo sapiens, UniProt P35368); experiment: Off-target binding affinity, adrenergic α1B
T2 construct: expressed in transfected cells; host or cells: HEK293, transient
T2 sequence (P35368 1-520): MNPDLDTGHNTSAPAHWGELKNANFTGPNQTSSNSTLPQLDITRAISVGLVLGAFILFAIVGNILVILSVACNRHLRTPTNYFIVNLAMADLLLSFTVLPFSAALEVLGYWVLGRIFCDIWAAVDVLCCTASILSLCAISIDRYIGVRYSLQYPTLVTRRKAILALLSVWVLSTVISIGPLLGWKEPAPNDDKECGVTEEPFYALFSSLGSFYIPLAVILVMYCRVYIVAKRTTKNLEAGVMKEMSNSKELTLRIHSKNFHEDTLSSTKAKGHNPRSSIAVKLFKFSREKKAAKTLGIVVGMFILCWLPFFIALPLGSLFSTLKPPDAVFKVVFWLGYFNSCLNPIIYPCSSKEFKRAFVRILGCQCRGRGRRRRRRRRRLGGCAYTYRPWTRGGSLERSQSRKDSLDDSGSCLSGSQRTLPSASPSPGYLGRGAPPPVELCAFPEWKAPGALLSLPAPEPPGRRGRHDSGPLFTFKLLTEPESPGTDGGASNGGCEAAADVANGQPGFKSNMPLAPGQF

[11] = target: T1, 5-HT1A receptors; experiment: Binding affinity, HEK293 cells transiently over-expressing human 5-HT1A
[12] = mean (SEM) sessions, score/6 possible
[13] = 30 min after 3.0 mg/kg subcutaneous, mean (SEM)
[14] = 60 min after 3.0 mg/kg subcutaneous, mean (SEM)

CN(C)C1CCc2c(cccc2-c2ccccc2F)C1 (single isomer, unassigned; (+)) [(+)-5-FPT, 5-(2′-fluorophenyl)-N,N-dimethyl-1,2,3,4-tetrahydronaphthalen-2-amine]
Flat Body ([1]; mean (SEM) number of sessions of six with the behavior (score/6 possible)): 0(0)
Forepaw Tread [1, 12]: 0(0)
Head Weave [1, 12]: 0(0)
Moon Walk [1, 12]: 0.3(0.2)
Piloerection [1, 12]: 0(0)
Straub Tail [1, 12]: 0(0)
Tremor [1, 12]: 0(0)
Symptoms of serotonin syndrome, in words ([1]; highest behaviorally-effective dose tested): did not result in symptoms of serotonin syndrome
Amphetamine (AMP) hyperlocomotion [2]: did not reduce hyperlocomotion; also recorded: did not significantly decrease hyperlocomotion
Locomotor behavior, compound on its own [3]: without altering locomotor behavior; also recorded: did not alter locomotion; also recorded: does not alter locomotor behavior
Grooming [4]: decreasing grooming
Social interactions ([4]; six one-min observation sessions): significantly increased the number of initiated social interactions; also recorded: increases social interactions
Blood-brain barrier crossing, in words ([5]; 30, 60 and 90 min after systemic administration): readily crosses the blood-brain barrier
Brain concentration [5, 13]: 1.78(0.24) μg/g
Plasma concentration [5, 13]: 0.114(0.03) μg/mL
Brain concentration [5, 14]: 2.16(0.17) μg/g
Plasma concentration [5, 14]: 0.118(0.01) μg/mL
Brain concentration ([5]; 90 min after 3.0 mg/kg subcutaneous, mean (SEM)): 1.46(0.09) μg/g
concentration at 90 min ([5]; mouse, plasma, 90 min after 3.0 mg/kg subcutaneous, mean (SEM)): 70 ng/mL
Clearance in the periphery, in words ([5]; plasma relative to brain tissue from 30 min post-administration): rapidly cleared in the periphery
Functional activity at 5-HT1A, in words [6]: partial agonist
Emax ([6]; read-out: EMAX 5-HT1A): 48%
Stereotypic jumping [7]: potently eliminated stereotypic jumping; also recorded: dose-dependently eliminates
Stereotypic rotational behavior, compound on its own [8]: neither (+)-5-FPT nor AMP caused stereotypic rotational behavior
MK-801-elicited stereotypic rotations ([8]; 5.6 mg/kg, MK-801 0.3 mg/kg): significantly reduced stereotypical rotations; also recorded: significantly reduces stereotypic rotations
MK-801 hyperlocomotion [9]: significantly decreased hyperlocomotion; also recorded: blocks
pKi [10]: < 5.00

CN(C)C1CCc2c(cccc2-c2ccccc2F)C1 (single isomer, unassigned; (-)) [(−)-5-FPT, 5-(2′-fluorophenyl)-N,N-dimethyl-1,2,3,4-tetrahydronaphthalen-2-amine]
pKi [10]: < 5.00
Affinity at 5-HT1A receptors, in words [11]: no appreciable affinity
